From patent US12115182B2, “Adenosine A2A agonists for the treatment of cytokine storm syndrome” (priority 2021, dated 2024)
Entries after “also recorded” stand apart in the source; their conditions may differ.

What was measured:
[1] = tested on: COVID-19 patients; assay: Regadenoson infusion in hospitalized COVID-19 patients: safety and clinical monitoring; assay type: in vivo, human; settings: for toxicities / side effects (nausea): during infusion or 30 days of follow-up; for SpO2: before vs 24 hours after RA infusion, pulse oximetry, N=5; for blood pressure: during and post RA infusion
Experimental: In cohort 1 of this trial, we tested the safety, tolerability, and toxicity of regadenoson in 5 COVID-19 patients (WHO stages 4-5) receiving supplemental oxygen without mechanical ventilation. All subjects received an infused loading dose of 5.0 μg/kg up to a maximum of 400 μg over 30 minutes, followed by a maintenance dose of 1.44 μg/kg/hr for 6 hours. Toxicity of regadenoson was graded by using Common Terminology for Adverse Events Criteria. Vital signs, pulse oximetry, arterial blood gas, laboratory studies, and electrocardiograms were performed on a schedule commensurate with level of care to identify potential risk of the study drug during and 12 hours post infusion. The trial was monitored by an NIH designated DSMB. Peripheral blood samples were collected at 4 timepoints. Along with clinical monitoring, plasma levels of cytokines (14-plex Luminex panel) were measured at various time points. Cytokine data were analyzed by SAS 9.5 PROC MIXED. Activation of peripheral blood mononuclear cells including iNKT cells was analyzed by flow cytometry. Flow cytometry data were analyzed by FCS Express 7 Research edition and GraphPad Prism v9. The plasma levels of regadenoson were determined via liquid chromatography-mass spectrometry.
Consented Covid-19 patients were treated with RA administered intravenously using a pediatric infusion pump at a loading dose rate of 5 μg/kg/hr for 30 min followed by a maintenance dose of 1.44 μg/kg/hr for 6 hours. Subjects' vital signs including oxygen saturation (SpO2), blood pressure, heart rate and respiratory rate were monitored throughout RA infusion.
Blood samples were drawn as a source of peripheral blood mononuclear cells (PBMCs). Cells were frozen in 10% DMSO and thawed for analysis of live cells by flow cytometry. Cytokines, CRP, and D dimer levels were measured in plasma. Blood samples were collected just prior to the start of RA infusion (0 hr), just prior to the end of the loading dose (30 min), 4 hours into the maintenance dose (4.5 hr), and the next day (24 hr).

[2] = tested on: plasma proinflammatory cytokines/chemokines; assay: Luminex plasma cytokines/chemokines in regadenoson-treated COVID-19 patients; assay type: in vivo, human
[3] = tested on: SARS-CoV-2; assay: Regadenoson in SARS-CoV-2-infected K18-ACE2 mice: survival; assay type: in vivo, mouse; settings: for survival / mortality of infected K18-ACE2 mice: 1.44 μg/kg/hr, 7-day Alzet pump, vs saline
[4] = tested on: plasma cytokines/chemokines; assay: Plasma cytokines/chemokines in lung transplant recipients (11-plex); assay type: in vivo, human
Experimental: (§1) Blood was drawn for cytokine/chemokine, damage associated molecular patterns (DAMPs) at the following different timepoints: 1) before infusion (baseline), 2) 15 minutes before reperfusion of the 1st lung, 3) 30 minutes after reperfusion of 1st lung, 4) 30 minutes after reperfusion of 2nd lung, and 5) 6 hours after reperfusion of 1st lung.
(§2) The cytokines/chemokines, HMGB1 and sRAGE were determined at The University of Virginia Flow Cytometry Core (RRID: SCR 017829) as previously described (LAU et al., J Heart Lung Transplant, (2020), 39:563-570). The customized 11-plex cytokine panel detects IL-1, IL-2, IL-6, IL-7, IL-8, IL-10, IL-12P40, IL-12P70, IL-17, TNFa, and IFN-γ (Millipore Sigma, Burlington, MA).
Statistical differences of cytokine/chemokines, heart rates and blood pressures between groups were determined by two-way ANOVA followed by Tukey's multiple comparison test (GraphPad Prism 9.0). The PGD scores were analyzed by chi-squared test. The intubation times and hospital LOS, ICU LOS were analyzed by ANOVA of log and Kruskal-Wallis. Data was reported as means±SD. P value equal or less than 0.05 was considered significant.

[5] = tested on: soluble receptor for advanced glycation end-products (sRAGE); assay: Plasma sRAGE in lung transplant recipients; assay type: in vivo, human
Experimental: as §1, §2
We designed this trial mainly as a Phase I safety and feasibility study that would allow an optimal infusional dose to be determined based on dose-limiting toxicities identified in lung transplant recipients. We also evaluated the potential efficacy by clinical outcomes and the lab evaluation of various cytokines/chemokines, DAMPs and enzymes. […] HMGB1 and sRAGE levels were measured using a customized human Cytokine/Chemokine multiplex immunoassay (Millipore Sigma, Burlington, MA) at The University of Virginia Flow Cytometry Core (RRID: SCR_01 7829) as previously described (LAU et al., J Heart Lung Transplant, (2020), 39:563-570).

[6] = tested on: SARS-CoV-2 strain B.1.351; assay type: in vivo, Golden Syrian hamster
[7] = day 7, Alzet minipump 80 μg/ml in PBS
[8] = PI day 7, compared to control group

Structure (SMILES): CNC(=O)c1cnn(-c2nc(N)c3ncn([C@@H]4O[C@H](CO)[C@@H](O)[C@H]4O)c3n2)c1 [Regadenoson]
- toxicities / side effects (nausea) ([1]; 5 COVID-19 patients): Transient and self-limiting nausea was reported by a single subject
- toxicities / side effects (nausea) ([1]; 5 COVID-19 patients, listed as RA): 1 case of transient self-limiting nausea, but no other toxicities or reportable side effects
- serious adverse events ([1]; 5 COVID-19 patients, loading dose 5.0 μg/kg over 30 minutes, maintenance 1.44 μg/kg/hr for 6 hours): No serious adverse events were observed
- time to discharge ([1]; 5 patients, all recovered): 3 to 9 days
- D dimer levels ([1]; 24 hours post RA infusion, n=5): significantly decreased
- SpO2 after the RA infusion ([1]; Case 3, 88% on admission): 97%
- SpO2 [1]: significantly less (P<0.05) than 24 hours after treatment; also recorded: statistically significant difference
- SpO2 ([1]; listed as RA): significantly further elevated
- blood pressure ([1]; n=5): no significant changes
- blood pressure ([1]; n=5, listed as RA): remain stable
- CRP levels reduced by ([1]; in 3 of 4 patients, 24 hours after RA infusion): > 50%
- vital signs ([1]; throughout the infusion and 12 hours post infusion): stable
- subjective symptoms ([1]; within 24 hours of RA treatment): subjective improvement in all subjects
- measured cytokines reduced ([2]; 14-plex Luminex panel, after 4 hours of regadenoson infusion): Twelve of the fourteen
- levels of 13 pro-inflammatory cytokines, ratio over baseline ([2]; 30 minutes after start of RA infusion): very little effect
- pro-inflammatory cytokines reduced, ratio over baseline ([2]; 4.5 hours after start of RA infusion): 11 of 13
- treated mice died ([3]; 1.44 μg/kg/hr subcutaneous infusion, 7-day pump, mostly on day 7): 50%
- survival / mortality of infected K18-ACE2 mice [3]: increases survival
- survival / mortality of infected K18-ACE2 mice ([3]; listed as RA): decreases mortality
- transplant-induced elevation of TNF-α ([4]; 30 minutes after reperfusion of 1st lung, low dose p=0.071, high dose p=0.154): trended toward reducing
- transplantation-induced plasma levels of IL-6 ([4]; 30 minutes after reperfusion of 2nd lung, low dose p=0.041, high dose p=0.007 vs control): significantly inhibited
- plasma IL-10 ([4]; low dose infusion, p=0.078): trended toward increasing
- plasma levels of IL-8 ([4]; low dose, 30 minutes after reperfusion of 2nd lung, p=0.032): significantly reduced
- transplantation-induced plasma levels of sRAGE ([5]; 30 minutes post 1st lung reperfusion (low dose) and 30 minutes post 2nd lung reperfusion (low and high dose), P<0.0001 vs control): significantly diminished; also recorded: significantly reduced
- plasma sRAGE level ([5]; high dose, 30 minutes post the 1st lung reperfusion, P=0.0656): decreased in trend
- albumin leakage into BAL [6, 8]: slight increase; also recorded: did not significantly
- plasma IL13 [6, 8]: slightly depressed; also recorded: did not significantly
- time course of the disease or viral titer detected in throat swabs ([6]; RT-qPCR): did not significantly
- plasma IL4 ([6]; compared to control): depressed; also recorded: did significantly
- decrease in weight gain ([6]; daily weights, vs control group): did not significantly
- histologic distribution or severity of lung pathology ([6]; day 7): did not significantly
- plasma Transforming Growth Factor beta (TGFb) ([6]; day 7, compared to control): decreased; also recorded: did significantly
- spread of virus to olfactory bulb (brain) ([6]; day 7, compared to control): decreased; also recorded: did significantly
- respiratory physiology parameters (EF50, Rpef, Penh) ([6]; whole body plethysmography, PI day 7): did not significantly
- mean +/-SEM plasma level for Regadenoson [7]: 7.6 ± 1.3 ng/mL
